Where two headings read alike, the source gives them in different places.
Molecular target: human BCL6 BTB domain (Trx-6xHis-BCL6) (Homo sapiens (Human), UniProt P41182)
Assay: HTRF in vitro assay (BCL6 BTB domain / BCOR-AF633 peptide)
Format: binding
Conditions: for IC50: read-out: HTRF pIC50 (converted)
[1] = initially generated data (Table 1a), 10 nM Trx-6xHis-BCL6, 1 nM anti-6xHis-Terbium cryptate
[2] = further generated data (Table 1b), 1 nM Trx-6xHis-BCL6, 0.5 nM anti-6xHis-Terbium cryptate

Description: The % inhibition at each concentration was calculated by normalising FRET ratio to the appropriate high (DMSO with all reagents) and low (DMSO without BCL6) controls.

CCNC(=O)C(C)Nc1cc(=O)n(C)c2ccc(Nc3ccnc(Cl)c3C#N)cc12 (racemic) [Example 3k, rac-2-((6-((2-Chloro-3-cyanopyridin-4-yl)amino)-1-methyl-2-oxo-1,2-dihydroquinolin-4-yl)amino)-N-ethylpropanamide]
IC50 [1]: 676 nM

CC[C@@H]1C[C@H]1Nc1cc(=O)n(C)c2ccc(Nc3cc(C(=O)O)nc(Cl)c3C#N)cc12 (racemic) [Example 9i, rac-6-chloro-5-cyano-4-((4-(((1R,2R)-2-ethylcyclopropyl)amino)-1-methyl-2-oxo-1,2-dihydroquinolin-6-yl)amino)picolinic acid]
IC50 [2]: 245 nM

CNC(=O)c1cc(Nc2ccc3c(c2)c(N[C@H]2CCC[C@H]2OC)cc(=O)n3C)c(C#N)c(Cl)n1 (racemic) [Example 19g, rac-6-chloro-5-cyano-4((4-(((1S,2R)-2-methoxycyclopentyl)amino)-1-methyl-2-oxo-1,2-dihydroquinolin-6-yl)amino)-N-methylpicolinamide]
IC50 [2]: 851 nM

COC1CCC1Nc1cc(=O)n(C)c2ccc(Nc3ccnc(Cl)c3C#N)cc12 (racemic) [Example 22b, rac-2-chloro-4-((4-(((1R,2S)-2-methoxycyclobutyl)amino)-1-methyl-2-oxo-1,2-dihydroquinolin-6-yl)amino)nicotinonitrile or rac-2-chloro-4-((4-(((1R,2R)-2-methoxycyclobutyl)amino)-1-methyl-2-oxo-1,2-dihydroquinolin-6-yl)amino)nicotinonitrile]
IC50 [2]: 575 nM

CNC(=O)c1cc(Nc2ccc3c(c2)c(NC2CCC2OC)cc(=O)n3C)c(C#N)c(Cl)n1 (racemic) [Example 23b, rac-6-chloro-5-cyano 4-((4-(((1R,2R)-2-methoxycyclobutyl)amino)-1-methyl-2-oxo-1,2-dihydroquinolin-6-yl)amino)-N-methylpicolinamide or rac-6-chloro-5-cyano-4-((4-(((1R,2S)-2-methoxycyclobutyl)amino)-1-methyl-2-oxo-1,2-dihydroquinolin-6-yl)amino)-N-methylpicolinamide]
IC50 [2]: 468 nM

CC(Nc1cc(=O)n(C)c2ccc(Nc3ccnc(Cl)c3C#N)cc12)c1nc[nH]n1 (centres unmarked) [Example 1e, 2-chloro-4-[[1-methyl-2-oxo-4-[1-(1H-1,2,4-triazol-3-yl)ethylamino]-6-quinolyl]amino]pyridine-3-carbonitrile]
HTRF pIC50 [2]: 6.08
HTRF pIC50 [1]: 6.50

Cn1c(=O)cc(N[C@H]2C[C@H](O)C2)c2cc(Nc3ccnc(Cl)c3C#N)ccc21 [Example 1f, trans-2-chloro-4-[[4-[(3-hydroxycyclobutyl)amino]-1-methyl-2-oxo-6-quinolyl]amino]pyridine-3-carbonitrile]
HTRF pIC50 [2]: 6.27
HTRF pIC50 [1]: 6.37

Cn1c(=O)cc(N[C@H]2CCOC2)c2cc(Nc3ccnc(Cl)c3C#N)ccc21 [Example 1g, 2-chloro-4-[[1-methyl-2-oxo-4-[[(3S)-tetrahydrofuran-3-yl]amino]-6-quinolyl]amino]pyridine-3-carbonitrile]
HTRF pIC50 [2]: 6.13
HTRF pIC50 [1]: 6.10

Cc1nc(C(C)Nc2cc(=O)n(C)c3ccc(Nc4ccnc(Cl)c4C#N)cc23)no1 (centres unmarked) [Example 1h, 2-chloro-4-[[1-methyl-4-[1-(5-methyl-1,2,4-oxadiazol-3-yl)ethylamino]-2-oxo-6-quinolyl]amino]pyridine-3-carbonitrile]
HTRF pIC50 [2]: 6.38
HTRF pIC50 [1]: 6.40

Cc1ccnc(C(C)Nc2cc(=O)n(C)c3ccc(Nc4ccnc(Cl)c4C#N)cc23)n1 (centres unmarked) [Example 1i, 2-chloro-4-[[1-methyl-4-[1-(4-methylpyrimidin-2-yl)ethylamino]-2-oxo-6-quinolyl]amino]pyridine-3-carbonitrile]
HTRF pIC50 [2]: 6.26
HTRF pIC50 [1]: 6.31

CC(Nc1cc(=O)n(C)c2ccc(Nc3ccnc(Cl)c3C#N)cc12)c1cnccn1 (centres unmarked) [Example 1j, 2-chloro-4-[[1-methyl-2-oxo-4-(1-pyrazin-2-ylethylamino)-6-quinolyl]amino]pyridine-3-carbonitrile]
HTRF pIC50 [2]: 6.29
HTRF pIC50 [1]: 6.27
